Tests used:
[1] = target: T1, C-C chemokine receptor type 5 (Homo sapiens, UniProt P51681); experiment: biochemical; assay type: cell-based, CHO
Target sequence in this assay (P51681 whole entry): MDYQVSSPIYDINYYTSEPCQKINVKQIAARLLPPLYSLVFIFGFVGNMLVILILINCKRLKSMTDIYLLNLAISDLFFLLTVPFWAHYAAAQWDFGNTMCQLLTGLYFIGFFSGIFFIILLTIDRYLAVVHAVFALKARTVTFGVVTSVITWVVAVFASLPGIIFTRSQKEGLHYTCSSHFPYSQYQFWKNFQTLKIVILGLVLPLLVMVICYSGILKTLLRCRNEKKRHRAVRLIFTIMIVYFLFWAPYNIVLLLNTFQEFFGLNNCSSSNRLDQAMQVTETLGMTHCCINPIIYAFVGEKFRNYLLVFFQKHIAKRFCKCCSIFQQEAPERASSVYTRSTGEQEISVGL

[2] = Inhibition (CIC90) of a single HIV-1 (BAL) infection cycle in HeLa Magi cells expressing both CXCR4 and CCR5 receptors over a 48 h period; assay type: functional; details: Homo sapiens
[3] = target: T1, C-C chemokine receptor type 5; experiment: Displacement of [125I]-labeled MIP-1alpha from the C-C chemokine receptor type 5 expressed on CHO cell membranes.; assay type: cell-based
Target sequence in this assay (P51681 whole entry): as above

[4] = Plasma clearance rate was determined for the compound in rat; assay type: ADME, organism-based; details: read-out: Clp
[5] = Half-life period was determined for the compound in rat; assay type: ADME, organism-based; details: in vivo
[6] = target: T1, C-C chemokine receptor type 5; experiment: Concentration that inhibits the entry of HIV-1 in to peripheral blood mononuclear cells (PBMCs) via the antagonism of CCR5 receptor.; assay type: functional
Target sequence in this assay (P51681 whole entry, looked up): as the sequence (P51681 whole entry) above

SMILES	IC50 [1]	IC90 [2]	other results
O=C(O)c1cccc(CCCC2(O)CCN(C[C@H]3CN(CC4CCCCC4)C[C@@H]3c3ccccc3)CC2)c1	3 nM	> 1000 nM	
C[n+]1n[nH]c(-c2ccc(CCCC3(O)CCN(C[C@H]4CN(CC5CCCCC5)C[C@@H]4c4ccccc4)CC3)cc2)n1	0.4 nM	> 300 nM	
O=C(O)Cc1ccc(CCCC2(O)CCN(C[C@H]3CN(CC4CCCCC4)C[C@@H]3c3ccccc3)CC2)cc1	5 nM	100 nM	
O=C(O)Cc1cccc(CCCC2(O)CCN(C[C@H]3CN(CC4CCCCC4)C[C@@H]3c3ccccc3)CC2)c1	6 nM	300 nM	
OC1(CCCc2ccncc2)CCN(C[C@H]2CN(CC3CCCCC3)C[C@@H]2c2ccccc2)CC1			IC50 [3]: 12 nM
Cn1nnnc1-c1ccc(CCCC2(O)CCN(C[C@H]3CN(CC4CCCCC4)C[C@@H]3c3ccccc3)CC2)cc1	0.2 nM	100 nM	
O=C(O)CCc1ccc(CCCC2(O)CCN(C[C@H]3CN(CC4CCCCC4)C[C@@H]3c3ccccc3)CC2)cc1	2 nM	40 nM	
O=C(O)c1ccccc1CCCC1(O)CCN(C[C@H]2CN(CC3CCCCC3)C[C@@H]2c2ccccc2)CC1	100 nM	> 1000 nM	
OC1(CCCc2ccc(-c3nnn[nH]3)cc2)CCN(C[C@H]2CN(CC3CCCCC3)C[C@@H]2c2ccccc2)CC1	0.2 nM	4 nM	clearance [4]: 61 mL/min/kg; half-life [5]: 20 min
C=CCN(C(=O)OCc1ccc([N+](=O)[O-])cc1)C1CCN(C[C@H]2CN(C(=O)c3ccccc3Cl)C[C@@H]2c2ccccc2)CC1		1 nM	IC95 [6]: 31 nM
OC1(CCCc2ccc(Cc3nnn[nH]3)cc2)CCN(C[C@H]2CN(CC3CCCCC3)C[C@@H]2c2ccccc2)CC1	1 nM	100 nM	
OC1(CCCc2ccccc2)CCN(C[C@H]2CN(CC3CCCCC3)C[C@@H]2c2ccccc2)CC1		200 nM	IC50 [3]: 0.3 nM; IC95 [6]: 580 nM
O=C(O)c1ccc(CCCC2(O)CCN(C[C@H]3CN(CC4CCCCC4)C[C@@H]3c3ccccc3)CC2)cc1	10 nM	1000 nM	
OC1(CCCc2cccnc2)CCN(C[C@H]2CN(CC3CCCCC3)C[C@@H]2c2ccccc2)CC1			IC50 [3]: 6 nM
OC1(CCCc2ccccn2)CCN(C[C@H]2CN(CC3CCCCC3)C[C@@H]2c2ccccc2)CC1			IC50 [3]: 7 nM

Source: ChEMBL document CHEMBL1134919, “1,3,4-Trisubstituted pyrrolidine CCR5 receptor antagonists. Part 3: polar functionality and its effect on anti-HIV-1 activity” (Bioorg Med Chem Lett, 2002)
